Assays:
Assay in all cases: relative viability (nuclei count vs DMSO), 5 days (fraction); higher = more cells survive
LOU-NH91 = tested on: LOU-NH91
Method in brief: (§1)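 Nuclei were stained with Hoechst during a one-step fixation (final 0.05% Triton X-100, 1% formaldehyde, 1 ug/ml Hoechst) carried out 5 days after dosing, then counted on 4× images. The cells, lung cancer lines in 1536-well plates, had been dosed by pin tool the day after seeding with one drug alone or a fixed anchor-drug dose plus five library-drug doses (not always all listed) in √10 steps. Relative viability is the nuclei count in treated wells divided by that in vehicle wells, and each value is the median of duplicate plates.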

NCI-H2023 = tested on: NCI-H2023
Method in brief: as §1

NCI-H1437 = tested on: NCI-H1437
Method in brief: as §1

EMC-BAC-2 = tested on: EMC-BAC-2
Method in brief: as §1

201T = tested on: 201T
Method in brief: as §1

UMC-11 = tested on: UMC-11
Method in brief: as §1

NCI-H1651 = tested on: NCI-H1651
Method in brief: as §1

NCI-H23 = tested on: NCI-H23
Method in brief: as §1

NCI-H1734 = tested on: NCI-H1734
Method in brief: as §1

HCC-78 = tested on: HCC-78
Method in brief: as §1

NCI-H1975 = tested on: NCI-H1975
Method in brief: as §1

For `O=C(O)CCCCC(CCSCc1ccccc1)SCc1ccccc1` (stereo not given) [CPI-613] + COc1cc2c(Oc3ccc(NC(=O)C4(C(=O)Nc5ccc(F)cc5)CC4)cc3F)ccnc2cc1OCCCN1CCOCC1 [Foretinib] (partner 0.25 µM), the relative viability (LOU-NH91; first compound 5 µM) was 0.863, the relative viability (LOU-NH91; first compound 15.81 µM) was 0.902 and the relative viability (LOU-NH91; first compound 50 µM) was 0.949. For the same compound, the relative viability (LOU-NH91; first compound 158.11 µM) was 0.963, the relative viability (LOU-NH91; first compound 500 µM) was 0.916 and the relative viability (NCI-H2023; first compound 5 µM) was 0.704. The relative viability (NCI-H2023; first compound 15.81 µM) was 0.719, the relative viability (NCI-H2023; first compound 50 µM) was 0.875 and the relative viability (NCI-H2023; first compound 158.11 µM) was 0.0718. The relative viability (NCI-H2023; first compound 500 µM) was 0.0092, the relative viability (NCI-H1437; first compound 5 µM) was 1.22 and the relative viability (NCI-H1437; first compound 15.81 µM) was 1.23. The relative viability (NCI-H1437; first compound 50 µM) was 1.29, the relative viability (NCI-H1437; first compound 158.11 µM) was 0.426 and the relative viability (NCI-H1437; first compound 500 µM) was 0.0461. It also gave a relative viability (EMC-BAC-2; first compound 5 µM) of 1.01, a relative viability (EMC-BAC-2; first compound 15.81 µM) of 0.993 and a relative viability (EMC-BAC-2; first compound 50 µM) of 0.967. For the same compound, the relative viability (EMC-BAC-2; first compound 158.11 µM) was 0.367, the relative viability (EMC-BAC-2; first compound 500 µM) was 0.0284 and the relative viability (201T; first compound 5 µM) was 1.12. For the same compound, the relative viability (201T; first compound 15.81 µM) was 1.03, the relative viability (201T; first compound 50 µM) was 1.11 and the relative viability (201T; first compound 158.11 µM) was 0.329. The relative viability (201T; first compound 500 µM) was 0.0557, the relative viability (UMC-11; first compound 5 µM) was 0.992 and the relative viability (UMC-11; first compound 15.81 µM) was 1.04. It also gave a relative viability (UMC-11; first compound 50 µM) of 0.995, a relative viability (UMC-11; first compound 158.11 µM) of 0.169 and a relative viability (UMC-11; first compound 500 µM) of 0.131. The relative viability (NCI-H1651; first compound 5 µM) was 0.794, the relative viability (NCI-H1651; first compound 15.81 µM) was 0.838 and the relative viability (NCI-H1651; first compound 50 µM) was 0.974. For the same compound, the relative viability (NCI-H1651; first compound 158.11 µM) was 0.295, the relative viability (NCI-H1651; first compound 500 µM) was 0.088 and the relative viability (NCI-H23; first compound 5 µM) was 1.03. It also gave a relative viability (NCI-H23; first compound 15.81 µM) of 0.917, a relative viability (NCI-H23; first compound 50 µM) of 0.985 and a relative viability (NCI-H23; first compound 158.11 µM) of 0.402. The relative viability (NCI-H23; first compound 500 µM) was 0.0153, the relative viability (NCI-H1734; first compound 5 µM) was 0.792 and the relative viability (NCI-H1734; first compound 15.81 µM) was 0.984. It also gave a relative viability (NCI-H1734; first compound 50 µM) of 0.859, a relative viability (NCI-H1734; first compound 158.11 µM) of 0.332 and a relative viability (NCI-H1734; first compound 500 µM) of 0.104. For the same compound, the relative viability (HCC-78; first compound 5 µM) was 0.497, the relative viability (HCC-78; first compound 15.81 µM) was 0.554 and the relative viability (HCC-78; first compound 50 µM) was 0.545. It also gave a relative viability (HCC-78; first compound 158.11 µM) of 0.52, a relative viability (HCC-78; first compound 500 µM) of 0.473 and a relative viability (NCI-H1975; first compound 5 µM) of 0.943. The relative viability (NCI-H1975; first compound 15.81 µM) was 0.964, the relative viability (NCI-H1975; first compound 50 µM) was 0.963 and the relative viability (NCI-H1975; first compound 158.11 µM) was 0.713. The relative viability (NCI-H1975; first compound 500 µM) was 0.151.

Reference: the supplement of paper PMC10307832
